The record followed here is paper PMC12700550, “DLL4^+ neutrophils promote Notch1-mediated endothelial PANoptosis to exacerbate acute lung injury in sepsis” (The Journal of Clinical Investigation, 2025).

Where “and” joins values, the source holds several entries; their conditions need not be identical. Equal values may be shown once.

One test relates to c-caspase-3. As to the kind of experiment: c/t caspase-3 (apoptosis) in PVECs cocultured with neutrophils, Western blot. It is filed as cell-based, mouse. As to conditions: for c/t caspase-3 (Figure 4H): 10 μM peptide, 16 h, individual replicates. On the procedure:
(§1) Wild-type PVECs (5 × 10^5) were cocultured with sorted DLL4^+ neutrophils (5 × 10^5) or DLL4^– neutrophils (5 × 10^5) and then treated with different dosages of peptides or 10 μM DAPT (Thermo Fisher Scientific), 10 μM NDI (GenScript), or 10 μM NDI scramble (GenScript). Notch1-knockdown PVECs (5 × 10^5) were cocultured with sorted DLL4^+ neutrophils (5 × 10^5). After 16 hours, neutrophils were washed away by PBS, and PVECs were collected for further experiments. Cell viability was evaluated by propidium iodide staining using the FITC Annexin V Apoptosis Detection Kit I (catalog 556547, BD Pharmingen). Cell death was quantified as the percentage of propidium iodide–positive cells by flow cytometry.
(§2) PVECs and lung tissue were collected in previous steps. Whole-cell proteins were extracted, and the protein concentration was measured using an ABC protein assay kit (catalog 5000002, Bio-Rad). Proteins were separated using NuPAGE 4%–12% Bis-Tris gels (Invitrogen), transferred to PVDF membranes, and immunoblotted with the antibodies indicated in the figure legends according to the manufacturer’s recommendations. The ZBP1 antibody (catalog PA5-20455; 1:1,000) used in this study was obtained from Thermo Fisher Scientific, and the c-GSDMD (catalog 10137S; 1:250), GSDMD (catalog 39754S; 1:1000), c-caspase-3 (catalog 9661L; 1:250), caspase-3 (catalog 9662S; 1:1,000), p-MLKL (catalog 37333S; 1:250), MLKL (catalog 37705S; 1:1,000), N1ICD (c-Notch1) (catalog 4147S; 1:250), and Notch1 (catalog 3608S; 1:1,000) antibodies were obtained from Cell Signaling Technology. GAPDH (catalog 60004-1-Ig; 1:10,000) and β-actin (catalog A5441, Sigma-Aldrich; 1:5,000) were obtained from ProteinTech. After the blots were incubated with primary antibodies, the membranes were washed 3 times, and the blots were subsequently incubated with the corresponding fluorescent secondary antibody (LI-COR). Bands were detected using an Odyssey FC Dual-Mode Imaging system 2800 (LI-COR).

Another test deals with p-MLKL. As to the kind of experiment: p-MLKL/MLKL (necroptosis) in PVECs cocultured with neutrophils, Western blot. The conditions noted are these: for p-MLKL/MLKL (Figure 4I): 10 μM peptide, 16 h, individual replicates. Format: cell-based, mouse. On the procedure:
as §1, §2

For test [1], the system named is C57BL/6 mice, CLP sepsis. As to the kind of experiment: Serum alanine aminotransferase (ALT), CLP mice. Format: in vivo, mouse. More on the design: serum ALT (Figure 6A): unit not given here. As to conditions: 20 h; for serum ALT (Figure 6A): 10 mg/kg NDI, individual mice. On the procedure: Sepsis was induced in mice by cecal ligation and puncture (CLP) as described previously ([45], [46]). Mice were anesthetized with isoflurane to a surgical plane and placed in a supine position. CLP was performed through a midline laparotomy. The abdomen was shaved and disinfected. Through a 2 cm midline incision, the cecum was exposed and then ligated with a 4-0 silk suture 1 cm proximal from the distal cecal extremity. […] A small amount of cecal content was extruded through both holes, and the ligated cecum was returned to the peritoneal cavity. The wound was closed in layers. […] A small amount of cecal content was extruded. […] Vehicle groups received an equivalent volume of PBS, while treatment groups received NDI 10 mg/kg in […] PBS via retro-orbital injection after CLP. This dose was chosen primarily on the basis of our laboratory’s prior experience, we have consistently used this dose in mouse CLP models with reproducible efficacy and without observable toxicity ([39], [44]). Sham-operated animals underwent a laparotomy without CLP. After closure, the mice received a subcutaneous injection of 0.5 mL of normal saline to overcome surgery-induced dehydration. […] All mice were subcutaneously injected with a single dose of 0.1 mg/kg buprenorphine after CLP. Serum levels of alanine aminotransferase, aspartate aminotransferase, and lactate dehydrogenase were determined using specific colorimetric enzymatic assays (Pointe Scientific Inc.) according to the manufacturer’s instructions.

The subject of test [2] is C57BL/6 mice, CLP sepsis. In words: 10-day survival, CLP mice. It is filed as in vivo, mouse. As to conditions: 10 mg/kg NDI. On the procedure: Sepsis was induced in mice by cecal ligation and puncture (CLP) as described previously ([45], [46]). Mice were anesthetized with isoflurane to a surgical plane and placed in a supine position. CLP was performed through a midline laparotomy. The abdomen was shaved and disinfected. Through a 2 cm midline incision, the cecum was exposed and then ligated with a 4-0 silk suture 1 cm proximal from the distal cecal extremity. For 20-hour CLP experiments, the cecum was punctured twice with a 22-gauge needle. A small amount of cecal content was extruded through both holes, and the ligated cecum was returned to the peritoneal cavity. The wound was closed in layers. For 10-day sepsis survival studies, the cecum was punctured once with a 22-gauge needle. A small amount of cecal content was extruded. Mice were allocated to the vehicle and adoptive transfer of DLL4^+ neutrophils or DLL4^– neutrophils groups. Adoptive transfer mice received a retro-orbital injection of 1 × 10^6 cells per mouse DLL4^+ neutrophils or DLL4^– neutrophils in […] phosphate-buffered saline (PBS) immediately after abdominal closure in both the 20-hour experiments and the survival study. Vehicle groups received an equivalent volume of PBS, while treatment groups received NDI 10 mg/kg in […] PBS via retro-orbital injection after CLP. This dose was chosen primarily on the basis of our laboratory’s prior experience, we have consistently used this dose in mouse CLP models with reproducible efficacy and without observable toxicity ([39], [44]). Sham-operated animals underwent a laparotomy without CLP. After closure, the mice received a subcutaneous injection of 0.5 mL of normal saline to overcome surgery-induced dehydration. […]
Data represented in the figures are expressed as mean ± SEM and were compared by 2-tailed Student’s t test for 2 groups or 1-way ANOVA using Student-Newman-Keuls post hoc analysis for multiple groups. Survival rates were analyzed by the Kaplan-Meier estimator and compared using a log-rank test. […]

The mark [3] stands for this setting: 10 μM NDI, DLL4^+ neutrophil coculture.

Regarding ECAGSPCHNGGTCEDGI [NDI], in the test on c-caspase-3 (setting [3]), the “effect on c-caspase-3” value is “significantly reduced these markers of PANoptosis”. Besides, the “c/t caspase-3 (Figure 4H)” value was 0.8975 and 0.9855 and 1.108 and 1.088 and 1.039 and 1.038 in the test with c-caspase-3 (DLL4^+ neutrophil coculture); 0.9343 and 1.21 and 1.29 and 1.079 and 1.0374 and 1.09 in the test with c-caspase-3 (DLL4^– neutrophil coculture). The “effect on p-MLKL” value in the test with p-MLKL (setting [3]) was “significantly reduced these markers of PANoptosis”. In addition, the “p-MLKL/MLKL (Figure 4I)” value with p-MLKL (DLL4^+ neutrophil coculture) is 1.115 and 1.398 and 1.246 and 1.299 and 0.9429 and 1.577 and 2.352; with p-MLKL (DLL4^– neutrophil coculture), 0.4818 and 0.8655 and 0.6799 and 0.9484. The “effect on serum ALT” value in the test on C57BL/6 mice, CLP sepsis [1] (DLL4^+ neutrophil-injected CLP mice, 10 mg/kg) was “significantly reduced the serum levels of hepatic and cell injury markers and proinflammatory cytokines”. The “serum ALT (Figure 6A)” value was 41.99 and 15.47 and 55.25 and 44.642 and 25.194 and 38.454 and 50.83 and 38.896 and 29.172 and 10.94 and 28.288 and 3.978 and 26.078 and 2.21 with C57BL/6 mice, CLP sepsis [1] (DLL4^+ neutrophils + CLP); 37.57 and 15.028 and 26.52 and 77.35 and 30.94 and 22.1 and 12.818 and 10.608 in the test on C57BL/6 mice, CLP sepsis [1] (DLL4^– neutrophils + CLP). Further, in the test with C57BL/6 mice, CLP sepsis [2] (N = 20, PBS-injected 15%), the “survival rate, 10 days” value is 75%. For the same sequence, in the test with C57BL/6 mice, CLP sepsis [2] (individual mice, code 0 stands at day 10, 1 at earlier days (meaning not given), 10 mg/kg), the “survival event code (Figure 6M)” value is 1 and 0. Moreover, in the test on C57BL/6 mice, CLP sepsis [2] (no exogenous neutrophils, individual mice, event code in next endpoint, 10 mg/kg), the “survival time (Figure 6M)” value is 3 days and 6 days and 10 days and 2 days and 4 days.
